Test results from PubChem BioAssay AID504898 (Southern Research Specialized Biocontainment Screening …, 2011).
pIC50: −log10 of the molar value. The source made the active and inactive calls. The rule behind the calls is not given here.

Key:
[1] = test system: M. tuberculosis H37Rv growth inhibition, glycerol-free medium; assay: Confirmatory M tuberculosis H37Rv growth inhibition assay in glycerol free medium (AID 504898); conditions: for pIC50: measured here: M. tuberculosis growth IC50
[2] = as above; conditions: M. tuberculosis H37Rv growth inhibition, glycerol-free medium; at 100 µM (top of the series)

O=C(CSc1nc2ccccc2c(=O)[nH]1)NC1CCCCC1
IC90 [1]: 510 nM | pIC50 [1]: 6.44

Nc1cc(=O)[nH]c(SCC(=O)NC2CCCCC2)n1
growth inhibition [2]: 0.56% (inactive)

CCOC1OC(=O)C(Cl)=C1Nc1ccccc1C (stereo not given)
IC90 [1]: 5980 nM | pIC50 [1]: 5.53

CN[C@@H]1[C@H](O[C@H]2[C@H](O[C@H]3[C@H](O)[C@@H](O)[C@H](N=C(N)N)[C@@H](O)[C@@H]3N=C(N)N)O[C@@H](C)[C@]2(O)C=O)O[C@@H](CO)[C@H](O)[C@H]1O
IC90 [1]: 180 nM | pIC50 [1]: 6.90

O=C(CSc1nc2ccccc2c(=O)[nH]1)N1CCOCC1
growth inhibition [2]: 3.26% (inactive)

O=c1[nH]c(=S)[nH]c2ccccc12
growth inhibition [2]: -2.86% (inactive)

CC1CCN(C(=O)C2CCN(c3nnc(-n4cccc4)s3)CC2)CC1
IC90 [1]: 6190 nM | pIC50 [1]: 5.52

COc1cccc(NC(=O)CSc2nc3c(c(=O)[nH]2)CCC3)c1
growth inhibition [2]: -9.1% (inactive)

CC1CCN(C(=O)CSc2nc3ccccc3c(=O)[nH]2)CC1
growth inhibition [2]: -0.8% (inactive)

CCCc1cc(C(N)=S)ccn1
pIC50 [1]: 5.02

COc1ccc(NC(=O)CSc2nc3ccccc3c(=O)[nH]2)cc1
growth inhibition [2]: 1.8% (inactive)

Cc1cccc(/C=C/C(=O)c2ccc([N+](=O)[O-])o2)c1
IC90 [1]: 2230 nM | pIC50 [1]: 5.83

Cc1cc(C)n2nc(N)c(N=Nc3ccccc3)c2n1
IC90 [1]: 5840 nM | pIC50 [1]: 5.37

COc1cccc(NC(=O)CSc2nc3ccccc3c(=O)[nH]2)c1
growth inhibition [2]: -2.5% (inactive)

CCC(Sc1nc2c(c(=O)[nH]1)CCC2)C(=O)Nc1cccc(OC)c1 (stereo not given)
growth inhibition [2]: -0.59% (inactive)

O=C(CSc1nc2ccccc2c(=O)[nH]1)NCc1ccc(Cl)cc1
IC90 [1]: 1600 nM | pIC50 [1]: 5.96

Cc1cccc(-c2oc3ccc(-c4ccc5c(c4)OCO5)cc3c2C#Cc2cncn2C)c1
IC90 [1]: 3020 nM | pIC50 [1]: 5.58

COC(=O)c1ccc(CNc2c(N3CCCC3)c(=O)c2=O)cc1
growth inhibition [2]: 0.74% (inactive)

CC[N+](C)(CC)CCCCOc1ccc2c(c1)C(=O)c1cc(OCCCC[N+](C)(CC)CC)ccc1-2
IC90 [1]: 2800 nM | pIC50 [1]: 5.72

O=C(CSc1nccc(=O)[nH]1)NC1CCCCC1
growth inhibition [2]: -5.34% (inactive)

NC[C@H]1O[C@H](O[C@H]2[C@H](O)[C@@H](O[C@H]3O[C@H](CO)[C@@H](O)[C@H](N)[C@H]3O)[C@H](N)C[C@@H]2N)[C@H](O)[C@@H](O)[C@@H]1O
IC90 [1]: 2420 nM | pIC50 [1]: 5.75

CN(C(=O)CSc1nc2ccccc2c(=O)[nH]1)C1CCCCC1
growth inhibition [2]: 2.63% (inactive)

c1ccc(/N=C2\N=C(Nc3ccccn3)c3ccccc32)nc1
IC90 [1]: 2520 nM | pIC50 [1]: 5.75

O=C(CSc1nc2ccccc2c(=O)[nH]1)NC1CCCC1
IC90 [1]: 630 nM | pIC50 [1]: 6.57

CC(C)CCNC(=O)CSc1nc2c(c(=O)[nH]1)CCC2
IC90 [1]: 2020 nM | pIC50 [1]: 5.86

Cc1cc(=O)[nH]c(SCC(=O)NC2CCCCC2)n1
growth inhibition [2]: -3.3% (inactive)

CC(C)CCNC(=O)CSc1nc2ccccc2c(=O)[nH]1
IC90 [1]: 280 nM | pIC50 [1]: > 6.96

CCC(Sc1nc2ccccc2c(=O)[nH]1)C(=O)NC1CCCCC1 (stereo not given)
growth inhibition [2]: -0.87% (inactive)

CCSc1nc(C)c(C)c(=O)[nH]1
growth inhibition [2]: 3.43% (inactive)

CN(C)C(=O)CSc1nc2ccccc2c(=O)[nH]1
growth inhibition [2]: 4.4% (inactive)

Cc1nc(SCC(=O)NC2CCCC2)[nH]c(=O)c1C
IC90 [1]: 13800 nM | pIC50 [1]: 5.02

O=c1[nH]c(SCc2ccccc2Cl)nc2c1CCCC2
growth inhibition [2]: 0.45% (inactive)

Cc1ccc(NC(=O)CSc2nc3ccccc3c(=O)[nH]2)cc1Cl
growth inhibition [2]: -2.52% (inactive)

NC(=O)CSc1nc2ccccc2c(=O)[nH]1
growth inhibition [2]: 3.58% (inactive)

Cc1cc(Br)ccc1NC(=O)c1cnc(N2CCN(c3ccccn3)CC2)c2ccccc12
pIC50 [1]: 5.36

Cc1nc(SCC(=O)NCCC(C)C)[nH]c(=O)c1C
IC90 [1]: 13600 nM | pIC50 [1]: 5.03

Cc1ccc(C(=O)N/N=C(/CC(=O)c2cccs2)C(F)(F)F)cc1
IC90 [1]: 2900 nM | pIC50 [1]: 5.77

NC(=O)c1cnccn1
growth inhibition [2]: 3.35% (inactive)

CCOc1ccc(-c2cc(C)[n+](CCc3ccc(OC)c(OC)c3)c(-c3ccc(OCC)cc3)c2)cc1
IC90 [1]: 1450 nM | pIC50 [1]: 6.14

Cc1[nH]c(=S)[nH]c(=O)c1C
growth inhibition [2]: -2.88% (inactive)

CNC(=O)CSc1nc2ccccc2c(=O)[nH]1
pIC50 [1]: 4.11

Cc1c[nH]c(=S)[nH]c1=O
growth inhibition [2]: -1.93% (inactive)

Cc1cc(=O)[nH]c(=S)[nH]1
growth inhibition [2]: -2.75% (inactive)

Cc1nc(SCC(=O)N(C)c2ccccc2)[nH]c(=O)c1C
growth inhibition [2]: -9.33% (inactive)

Cc1cnc(SCC(=O)NC2CCCCC2)[nH]c1=O
growth inhibition [2]: -3.1% (inactive)

Cc1[nH]c2ccccc2c1C(=O)COC(=O)c1ccc([N+](=O)[O-])s1
pIC50 [1]: < 4.17

CC(Sc1nc2ccccc2c(=O)[nH]1)C(=O)NC1CCCCC1 (stereo not given)
growth inhibition [2]: -1.37% (inactive)

Cn1c(SCC(=O)NC2CCCCC2)nc2ccccc2c1=O
growth inhibition [2]: -3.28% (inactive)

COc1c(N2CCNC(C)C2)c(F)cc2c(=O)c(C(=O)O)cn(C3CC3)c12 (stereo not given)
IC90 [1]: 140 nM | pIC50 [1]: 6.96

CC(C)NC(=O)CSc1nc2ccccc2c(=O)[nH]1
IC90 [1]: 15000 nM | pIC50 [1]: 5.01

CN1CCC(NC(=O)CSc2nc3ccccc3c(=O)[nH]2)CC1
growth inhibition [2]: -4% (inactive)

Cc1nc(SCC(N)=O)[nH]c(=O)c1C
growth inhibition [2]: 3% (inactive)

CC(C)N=c1cc2n(-c3ccc(Cl)cc3)c3ccccc3nc-2cc1Nc1ccc(Cl)cc1
IC90 [1]: 360 nM | pIC50 [1]: 7.17

CCC(Sc1nc2ccccc2c(=O)[nH]1)C(=O)Nc1cccc(OC)c1 (stereo not given)
growth inhibition [2]: -0.61% (inactive)

CCOC(=O)CSc1nc(C)c(C)c(=O)[nH]1
growth inhibition [2]: -0.94% (inactive)

O=C(CSc1ccccn1)NC1CCCCC1
growth inhibition [2]: 13.4% (inactive)

O=C(CSc1nc2c(c(=O)[nH]1)CCCC2)NC1CCCCC1
IC90 [1]: < 110 nM | pIC50 [1]: > 7.24

COC(=O)C(Nc1nc(SCC(=O)NC2CCCCC2)nc2ccccc12)c1ccccc1 (stereo not given)
growth inhibition [2]: -4.58% (inactive)

O=C(CSc1nc2c(c(=O)[nH]1)CCC2)NC1CCCCC1
IC90 [1]: < 100 nM | pIC50 [1]: > 7.19

Cc1ccc(NC(=O)COC(=O)CCc2c[nH]c3ccccc23)cc1[N+](=O)[O-]
IC90 [1]: 8510 nM | pIC50 [1]: 5.63

Nc1c(C(=O)NC2CCCCC2)nsc1C(=O)OCC(=O)NC1CCCCC1
IC90 [1]: 52600 nM | pIC50 [1]: 5.18

Cc1nc(SCC(=O)NC2CCCCC2)[nH]c(=O)c1C
IC90 [1]: 9530 nM | pIC50 [1]: 6.89

COC(=O)C(C)Oc1ccc(Cc2ncc(C(F)(F)F)cc2Cl)cc1 (stereo not given)
IC90 [1]: 5620 nM | pIC50 [1]: 5.44

NNC(=O)c1ccncc1
IC90 [1]: 460 nM | pIC50 [1]: 6.51

CCSc1nc2ccccc2c(=O)[nH]1
growth inhibition [2]: -0.83% (inactive)

O=C(CSc1ncccn1)NC1CCCCC1
growth inhibition [2]: -3.37% (inactive)

Cc1nc(SCc2ccccc2Cl)[nH]c(=O)c1C
growth inhibition [2]: -0.81% (inactive)
